According to ChEMBL document CHEMBL1201862, “PubChem BioAssay data set” (2004):
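Grown in 96-well plates, cells were treated for 48 hours with each compound at five concentrations. Insufficient inhibition: endpoint recorded as highest concentration tested. GI50 is the concentration that inhibits growth by half.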 The source made the active and inactive calls. Cut-off read from the data, not from the text of the source: active = GI50 up to about 1.1 µM and inactive = higher.

Columns and labels:
Test in all cases: NCI anticancer screen, dose series, 48 h
[1] = tested on: KM12
[2] = tested on: HOP-92
[3] = tested on: UACC-257
[4] = tested on: SF-295
[5] = tested on: MOLT-4
[6] = tested on: COLO 205
[7] = tested on: IGROV-1
[8] = tested on: SK-OV-3
[9] = tested on: SN12C
[10] = tested on: UACC-62
[11] = tested on: HT-29
[12] = tested on: K562
[13] = tested on: OVCAR-4
[14] = tested on: UO-31
[15] = tested on: U-251
[16] = tested on: HCT-116
[17] = tested on: NCI-H226
[18] = tested on: OVCAR-8
[19] = tested on: SF-539
[20] = tested on: RPMI-8226

SMILES	GI50 [1]	GI50 [2]	GI50 [3]	GI50 [4]	GI50 [5]	GI50 [6]	GI50 [7]	GI50 [8]	GI50 [9]	GI50 [10]	GI50 [11]	GI50 [12]	GI50 [13]	GI50 [14]	GI50 [15]	GI50 [16]	GI50 [17]	GI50 [18]	GI50 [19]	GI50 [20]
CC(C)(C)/N=c1/n(C(C)(C)C)oc(=O)n1C(C)(C)C	> 100 µM (inactive)	> 100 µM (inactive)	> 100 µM (inactive)	> 100 µM (inactive)	> 100 µM (inactive)	> 100 µM (inactive)	> 100 µM (inactive)	> 100 µM (inactive)	> 100 µM (inactive)	> 100 µM (inactive)	> 100 µM (inactive)	> 100 µM (inactive)	> 100 µM (inactive)	> 100 µM (inactive)	> 100 µM (inactive)	> 100 µM (inactive)	> 100 µM (inactive)	> 100 µM (inactive)	> 100 µM (inactive)	–
Nc1ccc(N(S(=O)(=O)c2ccccc2)S(=O)(=O)c2ccccc2)c(Cl)c1	24.2 µM (inactive)	70.3 µM (inactive)	34.3 µM (inactive)	32.2 µM (inactive)	14.2 µM (inactive)	21 µM (inactive)	62.1 µM (inactive)	–	75.9 µM (inactive)	24.8 µM (inactive)	37.8 µM (inactive)	2.98 µM (inactive)	75.3 µM (inactive)	> 100 µM (inactive)	39.3 µM (inactive)	55.2 µM (inactive)	73.5 µM (inactive)	70.8 µM (inactive)	69 µM (inactive)	28.7 µM (inactive)
O=C1NC(=O)C(CCO)(c2ccccc2)C(=O)N1	> 100 µM (inactive)	> 100 µM (inactive)	> 100 µM (inactive)	> 100 µM (inactive)	> 100 µM (inactive)	> 100 µM (inactive)	> 100 µM (inactive)	> 100 µM (inactive)	> 100 µM (inactive)	> 100 µM (inactive)	> 100 µM (inactive)	> 100 µM (inactive)	> 100 µM (inactive)	> 100 µM (inactive)	> 100 µM (inactive)	> 100 µM (inactive)	> 100 µM (inactive)	> 100 µM (inactive)	> 100 µM (inactive)	–
Cc1c(Cl)c(=O)oc2cc(OCC(=O)c3ccccc3)ccc12	> 100 µM (inactive)	97.5 µM (inactive)	> 100 µM (inactive)	> 100 µM (inactive)	> 100 µM (inactive)	> 100 µM (inactive)	> 100 µM (inactive)	> 100 µM (inactive)	> 100 µM (inactive)	> 100 µM (inactive)	> 100 µM (inactive)	> 100 µM (inactive)	> 100 µM (inactive)	> 100 µM (inactive)	33.2 µM (inactive)	–	> 100 µM (inactive)	> 100 µM (inactive)	> 100 µM (inactive)	–
Oc1c(Br)ccc2cccnc12	4.07 µM (inactive)	4.09 µM (inactive)	1.36 µM (inactive)	0.834 µM (active)	2.02 µM (inactive)	3.04 µM (inactive)	0.938 µM (active)	4.21 µM (inactive)	4.73 µM (inactive)	1.52 µM (inactive)	5.3 µM (inactive)	1.06 µM (active)	2.1 µM (inactive)	1.64 µM (inactive)	2.4 µM (inactive)	2.05 µM (inactive)	5.19 µM (inactive)	2.25 µM (inactive)	–	2.79 µM (inactive)
C=CCOCCC(CC=C)C(=O)CC(=O)OC (stereo not given)	> 100 µM (inactive)	90.4 µM (inactive)	> 100 µM (inactive)	> 100 µM (inactive)	28.5 µM (inactive)	–	> 100 µM (inactive)	> 100 µM (inactive)	> 100 µM (inactive)	52.8 µM (inactive)	> 100 µM (inactive)	19.3 µM (inactive)	> 100 µM (inactive)	> 100 µM (inactive)	> 100 µM (inactive)	45.6 µM (inactive)	> 100 µM (inactive)	> 100 µM (inactive)	> 100 µM (inactive)	25.3 µM (inactive)
C=CCC12CC(=O)C=C1CCC1(C2)OCCO1 (stereo not given)	> 100 µM (inactive)	–	> 100 µM (inactive)	–	> 100 µM (inactive)	> 100 µM (inactive)	> 100 µM (inactive)	> 100 µM (inactive)	> 100 µM (inactive)	> 100 µM (inactive)	–	> 100 µM (inactive)	> 100 µM (inactive)	> 100 µM (inactive)	> 100 µM (inactive)	> 100 µM (inactive)	> 100 µM (inactive)	–	> 100 µM (inactive)	> 100 µM (inactive)
CN(C)CCCNC(=O)N/N=C/c1ccccc1	> 100 µM (inactive)	–	> 100 µM (inactive)	> 100 µM (inactive)	> 100 µM (inactive)	–	> 100 µM (inactive)	> 100 µM (inactive)	> 100 µM (inactive)	> 100 µM (inactive)	> 100 µM (inactive)	> 100 µM (inactive)	–	> 100 µM (inactive)	> 100 µM (inactive)	> 100 µM (inactive)	> 100 µM (inactive)	> 100 µM (inactive)	> 100 µM (inactive)	–
